Tests used:
NK1 = NK1 (Homo sapiens, UniProt P25103); test: Signal transduction (ST), intracellular Ca++ FLIPR, NK1; type: cell-based; conditions: antagonist, Ca++ transient peak, read-out: NK1 pIC50 (converted)
Procedure: (§1) This test evaluates in vitro functional NK1 antagonistic activity. For the measurements of intracellular Ca^++ concentrations the cells were grown on 96-well (black wall/transparent bottom) plates from Costar for 2 days until they reached confluence. The cells were loaded with 2 μM Fluo3 in DMEM containing 0.1% BSA and 2.5 mM probenecid for 1 h at 37° C. They were washed 3× with a Krebs buffer (140 mM NaCl, 1 mM MgCl2x6H2O, 5 mM KCl, 10 mM glucose, 5 mM HEPES; 1.25 mM CaCl2; pH 7.4) containing 2.5 mM probenecid and 0.1% BSA (Ca^++-buffer). The cells were preincubated with a concentration range of antagonists for 20 min at RT and Ca^++-signals after addition of the agonists were measured in a Fluorescence Image Plate Reader (FLIPR from Molecular Devices, Crawley, England). The peak of the Ca^++-transient was considered as the relevant signal and the mean values of corresponding wells were analysed as described below.
The sigmoidal dose response curves were analysed by computerised curve-fitting, using the GraphPad program. The EC50-value of a compound is the effective dose showing 50% of maximal effect. For mean curves the response to the agonist with the highest potency was normalised to 100%. For antagonist responses the IC50-value was calculated using non-linear regression. […]

NK3 = molecular target: T1, NK3 (Homo sapiens, UniProt P29371); test: Signal transduction (ST), intracellular Ca++ FLIPR, NK3; type: cell-based; conditions: antagonist, Ca++ transient peak, read-out: NK3 pIC50 (converted)
T1 sequence (P29371 1-465): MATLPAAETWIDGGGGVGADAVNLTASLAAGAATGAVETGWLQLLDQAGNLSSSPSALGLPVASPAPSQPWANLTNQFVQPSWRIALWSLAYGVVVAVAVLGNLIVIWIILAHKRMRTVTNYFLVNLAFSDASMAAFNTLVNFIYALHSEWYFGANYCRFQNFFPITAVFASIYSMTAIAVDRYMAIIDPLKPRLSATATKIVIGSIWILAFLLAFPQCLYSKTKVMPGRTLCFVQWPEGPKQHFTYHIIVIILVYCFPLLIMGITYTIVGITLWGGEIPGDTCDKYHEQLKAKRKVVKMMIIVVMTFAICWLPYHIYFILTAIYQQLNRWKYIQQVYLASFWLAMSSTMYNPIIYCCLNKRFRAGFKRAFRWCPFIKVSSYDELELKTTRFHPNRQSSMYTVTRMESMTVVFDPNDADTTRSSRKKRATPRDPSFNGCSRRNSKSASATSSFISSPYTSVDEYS
Procedure: [The source words this procedure for another target and reports this target under the same test.] as §1
The sigmoidal dose response curves were analysed by computerised curve-fitting, using the GraphPad program. The EC50-value of a compound is the effective dose showing 50% of maximal effect. For mean curves the response to the agonist with the highest potency was normalised to 100%. For antagonist responses the IC50-value was calculated using non-linear regression.
The last columns indicates—without being limited thereto—for which use the compounds might be most suitable. Of course, since for some neurokinin receptors no data was determined, it is obvious that these compounds might be attributed to another suitable use.

NK1, sequence (P25103 whole entry): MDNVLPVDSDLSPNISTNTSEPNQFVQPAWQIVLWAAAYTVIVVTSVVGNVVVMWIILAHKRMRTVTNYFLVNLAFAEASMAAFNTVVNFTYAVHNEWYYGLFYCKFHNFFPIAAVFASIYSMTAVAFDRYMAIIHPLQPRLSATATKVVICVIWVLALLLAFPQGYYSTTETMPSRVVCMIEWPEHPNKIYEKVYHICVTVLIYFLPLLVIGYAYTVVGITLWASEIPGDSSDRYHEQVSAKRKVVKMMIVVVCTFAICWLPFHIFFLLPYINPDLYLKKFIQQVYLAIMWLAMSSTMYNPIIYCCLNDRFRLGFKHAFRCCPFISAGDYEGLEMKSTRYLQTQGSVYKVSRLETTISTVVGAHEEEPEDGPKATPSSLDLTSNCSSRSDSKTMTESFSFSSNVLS

| Compound | IC50 (NK1) [nM] | IC50 (NK3) [µM] |
| --- | --- | --- |
| COC1(CN2CCN(C3CCN(C(=O)c4cccnc4)C3)CC2)CCN(C(=O)c2cc(C(F)(F)F)cc(C(F)(F)F)c2)C(Cc2ccccc2)C1 (stereo not drawn) [Compound 88] | 61.7 | > 10 |
| O=C([C@H]1CCN(C(=O)c2cc(C(F)(F)F)cc(C(F)(F)F)c2)[C@H](Cc2ccccc2)C1)N1CCN(C2CCNC2)CC1 (stereo partly drawn) [Compound 66] | 214 | 6.76 |
| Cc1cccc(C(=O)N2CCC(N3CCN(C[C@H]4CCN(C(=O)c5cc(C(F)(F)F)cc(C(F)(F)F)c5)[C@H](Cc5ccccc5)C4)CC3)CC2)c1 [Compound 41] | 166 | – |
| O=C(c1cccc(O)c1)N1CCC(N2CCN(CC3CCN(C(=O)c4cc(C(F)(F)F)cc(C(F)(F)F)c4)C(Cc4ccccc4)C3)CC2)CC1 (stereo not drawn) [Compound 44] | 87.1 | – |
| CC(C)(C)OC(=O)N1CCC(N2CCN(CC3CCN(C(=O)c4cc(C(F)(F)F)cc(C(F)(F)F)c4)C(Cc4ccccc4)C3)CC2)CC1 (stereo not drawn) [Compound 5] | 209 | > 10 |
| Cc1nnsc1C(=O)N1CCC(N2CCN(C(=O)[C@H]3CCN(C(=O)c4cc(C(F)(F)F)cc(C(F)(F)F)c4)[C@H](Cc4ccccc4)C3)CC2)CC1 [Compound 58] | 8.71 | > 10 |
| O=C(C1CCN(C(=O)c2cc(C(F)(F)F)cc(C(F)(F)F)c2)C(Cc2ccccc2)C1)N1CCN(C2CCN(Cc3ccccc3)CC2)CC1 (stereo not drawn) [Compound 3] | 347 | > 10 |
| O=C(c1ccccc1)N1CCC(N2CCN(C(=O)[C@H]3CCN(C(=O)c4cc(C(F)(F)F)cc(C(F)(F)F)c4)[C@H](Cc4ccccc4)C3)CC2)CC1 [Compound 59] | 10.7 | 9.55 |
| COC1(CN2CCN(C3CCN(C(=O)c4ccoc4)C3)CC2)CCN(C(=O)c2cc(C(F)(F)F)cc(C(F)(F)F)c2)C(Cc2ccccc2)C1 (stereo not drawn) [Compound 85] | 64.6 | > 10 |
| O=C(c1ccoc1)N1CCC(N2CCN(C(=O)[C@H]3CCN(C(=O)c4cc(C(F)(F)F)cc(C(F)(F)F)c4)[C@H](Cc4ccccc4)C3)CC2)C1 (stereo partly drawn) [Compound 70] | 25.7 | > 10 |
| O=C(c1cc2ccccc2oc1=O)N1CCC(N2CCN(C[C@H]3CCN(C(=O)c4cc(C(F)(F)F)cc(C(F)(F)F)c4)[C@H](Cc4ccccc4)C3)CC2)CC1 (relative stereo) [Compound 50] | 91.2 | – |
| O=C(CC1CCN(C(=O)c2cc(C(F)(F)F)cc(C(F)(F)F)c2)[C@@H](Cc2ccccc2)C1)N1CCN(C2CCN(C(=O)C3CCOC3)C2)CC1 (mixture of isomers) [Compound 73] | 41.7 | > 10 |
| Cn1cc(C(=O)N2CCC(N3CCN(CC4CCN(C(=O)c5cc(C(F)(F)F)cc(C(F)(F)F)c5)C(Cc5ccccc5)C4)CC3)CC2)c2ccccc21 (stereo not drawn) [Compound 40] | 347 | – |
| O=C([C@H]1CCN(C(=O)c2cc(C(F)(F)F)cc(C(F)(F)F)c2)[C@H](Cc2ccccc2)C1)N1CCN(C2CCN(Cc3ccccc3)C2)CC1 (stereo partly drawn) [Compound 67] | 75.9 | > 10 |
| O=C(c1ccccc1O)N1CCC(N2CCN(CC3CCN(C(=O)c4cc(C(F)(F)F)cc(C(F)(F)F)c4)C(Cc4ccccc4)C3)CC2)CC1 (stereo not drawn) [Compound 43] | 123 | – |
| O=C(C1CCN(C(=O)c2cc(C(F)(F)F)cc(C(F)(F)F)c2)C(Cc2ccccc2)C1)N1CCN(C2CCNCC2)CC1 (stereo not drawn) [Compound 4] | 251 | > 10 |
| O=C(c1ccccc1Cl)N1CCC(N2CCN(C(=O)[C@H]3CCN(C(=O)c4cc(C(F)(F)F)cc(C(F)(F)F)c4)[C@H](Cc4ccccc4)C3)CC2)C1 (stereo partly drawn) [Compound 72] | 31.6 | > 10 |
| O=C(c1ccccn1)N1CCC(N2CCN(C[C@H]3CCN(C(=O)c4cc(C(F)(F)F)cc(C(F)(F)F)c4)[C@H](Cc4ccccc4)C3)CC2)CC1 [Compound 47] | 204 | – |

| Compound | IC50 (NK1) [nM] | IC50 (NK3) [µM] |
| --- | --- | --- |
| COC1(CN2CCN(C3CCN(S(=O)(=O)c4c(C)noc4C)C3)CC2)CCN(C(=O)c2cc(C(F)(F)F)cc(C(F)(F)F)c2)C(Cc2ccccc2)C1 (stereo not drawn) [Compound 89] | 60.3 | 3.55 |
| Cc1cc(C(=O)N2CCC(N3CCN(C[C@H]4CCN(C(=O)c5cc(C(F)(F)F)cc(C(F)(F)F)c5)[C@H](Cc5ccccc5)C4)CC3)CC2)no1 [Compound 36] | 46.8 | – |
| O=C(C1CCN(C(=O)c2cc(C(F)(F)F)cc(C(F)(F)F)c2)C(Cc2ccccc2)C1)N1CCN(C2CCN(S(=O)(=O)c3cccs3)C2)CC1 (stereo not drawn) [Compound 13] | 13.2 | 2.51 |
| O=C(Cc1c[nH]cn1)N1CCC(N2CCN(CC3CCN(C(=O)c4cc(C(F)(F)F)cc(C(F)(F)F)c4)C(Cc4ccccc4)C3)CC2)CC1 (stereo not drawn) [Compound 51] | 120 | – |
| O=C(C1CC1)N1CCC(N2CCN(C(=O)[C@H]3CCN(C(=O)c4cc(C(F)(F)F)cc(C(F)(F)F)c4)[C@H](Cc4ccccc4)C3)CC2)C1 (stereo partly drawn) [Compound 68] | 13.2 | 6.61 |
| O=C(c1ccoc1)N1CCC(N2CCN(C(=O)[C@H]3CCN(C(=O)c4cc(C(F)(F)F)cc(C(F)(F)F)c4)[C@H](Cc4ccccc4)C3)CC2)CC1 [Compound 57] | 22.9 | 2.45 |
| COc1cc(CC(=O)N2CCC(N3CCN(CC4CCN(C(=O)c5cc(C(F)(F)F)cc(C(F)(F)F)c5)C(Cc5ccccc5)C4)CC3)CC2)cc(OC)c1OC (stereo not drawn) [Compound 53] | 85.1 | – |
| Cc1cc(C)cc(C(=O)N2CCC(N3CCN(CC4CCN(C(=O)c5cc(C(F)(F)F)cc(C(F)(F)F)c5)C(Cc5ccccc5)C4)CC3)CC2)c1 (stereo not drawn) [Compound 12] | 316 | – |
| COC1(CN2CCN(C3CCN(C(=O)c4ccccc4)C3)CC2)CCN(C(=O)c2cc(C(F)(F)F)cc(C(F)(F)F)c2)C(Cc2ccccc2)C1 (stereo not drawn) [Compound 87] | 115 | > 10 |
| CC(C)(C)OC(=O)N1CCC(N2CCN(C(=O)CC3CCN(C(=O)c4cc(C(F)(F)F)cc(C(F)(F)F)c4)[C@@H](Cc4ccccc4)C3)CC2)C1 (mixture of isomers) [Compound 7] | 174 | > 10 |
| Cn1cccc1C(=O)N1CCC(N2CCN(C[C@H]3CCN(C(=O)c4cc(C(F)(F)F)cc(C(F)(F)F)c4)[C@H](Cc4ccccc4)C3)CC2)CC1 [Compound 34] | 209 | – |
| COC1(CN2CCN(C3CCN(C(=O)c4snnc4C)C3)CC2)CCN(C(=O)c2cc(C(F)(F)F)cc(C(F)(F)F)c2)C(Cc2ccccc2)C1 (stereo not drawn) [Compound 86] | 67.6 | 10.2 |
| O=C(c1ccc2ccccc2n1)N1CCC(N2CCN(CC3CCN(C(=O)c4cc(C(F)(F)F)cc(C(F)(F)F)c4)C(Cc4ccccc4)C3)CC2)CC1 (stereo not drawn) [Compound 16] | 138 | – |
| O=C(C1CCOC1)N1CCC(N2CCN(C(=O)[C@H]3CCN(C(=O)c4cc(C(F)(F)F)cc(C(F)(F)F)c4)[C@H](Cc4ccccc4)C3)CC2)C1 (stereo partly drawn) [Compound 69] | 39.8 | 6.03 |
| Cn1cccc1C(=O)N1CCC(N2CCN(CC3CCN(C(=O)c4cc(C(F)(F)F)cc(C(F)(F)F)c4)C(Cc4ccccc4)C3)CC2)CC1 (stereo not drawn) [Compound 33] | 224 | – |
| O=C(CC1CCN(C(=O)c2cc(C(F)(F)F)cc(C(F)(F)F)c2)C(Cc2ccccc2)C1)N1CCN(C2CCNC2)CC1 (stereo not drawn) [Compound 8] | 302 | > 10 |
| COC1(CN2CCN(C3CCNC3)CC2)CCN(C(=O)c2cc(C(F)(F)F)cc(C(F)(F)F)c2)C(Cc2ccccc2)C1 (stereo not drawn) [Compound 81] | 200 | > 10 |

— patent US20070213346A1, “Substituted 4-Alkyl-And 4-Alkanoyl-Piperidine Derivatives And Their Use As Neurokinin Antagonists” (priority 2004, published 2007)
